{"source": "patent US5439885A", "about": "“CRF analogs” (The Salk Institute for Biological Studies, priority 1993, dated 1995)", "key": {"[1]": {"test": "lowering of blood pressure when injected peripherally", "assay_type": "in vivo, mammals", "settings": "e.g. intravenously"}, "[2]": {"test": "biopotency of CRF analog (test not specified)"}, "[3]": {"tested_on": "secretion of ACTH and β-END-LI", "test": "inhibition of the secretion of ACTH and β-END-LI by CRF antagonists", "assay_type": "in vivo", "settings": "injected peripherally"}, "rats": {"tested_on": "rats", "settings": "administered into the ventricles; cited from earlier work"}, "[4]": {"settings": "CRF in the brain; cited from earlier work"}, "[5]": {"tested_on": "secretion of ACTH and β-END-LI", "test": "in vivo stimulation of the secretion of ACTH and β-END-LI", "experimental": "(§1) The synthetic CRF agonist peptides [Ala^20 ]-oCRF and [Ala^39 ]-oCRF are examined for their effects on the secretion of ACTH and β-endorphin in vitro and also in vivo. The potency of synthetic oCRF analogs to stimulate the secretion of ACTH and β-endorphin by cultured rat pituitary cells is measured using the procedure as generally set forth in Endocrinology, 91, 562 (1972) and compared against synthetic oCRF. [Ala^20 ]-oCRF is considered to be about 2 to 4 times as potent as the native hormone. […] In vivo testing which can be carried out using the general procedure set forth in C."}, "[6]": {"tested_on": "cultured rat pituitary cells", "assay_type": "cell-based", "experimental": "as §1"}, "[7]": {"tested_on": "cultured rat pituitary cells", "settings": "background statement; cited from earlier work"}, "[8]": {"tested_on": "secretion of ACTH and β-END-LI", "settings": "background statement; cited from earlier work"}, "[9]": {"settings": "background statement; cited from earlier work"}}, "note": "“Also recorded” adds a separate entry of the source. Like-named read-outs stand apart in the source and are kept apart here. Where a SMILES comes first, the peptide text is derived from it. Where no end group is shown, it is not given here. [ ]: non-standard residue; d: D form. Nle = CCCC[C@H](N)C(=O)O"}
{"compound": "CC[C@H](C)[C@H](NC(=O)[C@@H](NC(=O)[C@H](CCC(=O)O)NC(=O)[C@H](CCSC)NC(=O)[C@H](CC(C)C)NC(=O)[C@H](CCCCN)NC(=O)[C@H](CCCNC(=N)N)NC(=O)[C@H](CC(N)=O)NC(=O)[C@H](CO)NC(=O)[C@H](Cc1c[nH]cn1)NC(=O)[C@H](C)NC(=O)[C@H](CCC(N)=O)NC(=O)[C@H](CCC(N)=O)NC(=O)[C@H](C)NC(=O)[C@H](CC(C)C)NC(=O)[C@H](CCC(N)=O)NC(=O)[C@H](CCC(=O)O)NC(=O)[C@H](C)NC(=O)[C@H](CCCNC(=N)N)NC(=O)[C@H](C)NC(=O)[C@H](CCSC)NC(=O)[C@H](C)NC(=O)[C@H](CC(C)C)NC(=O)[C@@H](NC(=O)[C@H](CCC(=O)O)NC(=O)[C@H](CCCNC(=N)N)NC(=O)[C@H](CC(C)C)NC(=O)[C@H](CC(C)C)NC(=O)[C@H](Cc1c[nH]cn1)NC(=O)[C@@H](Cc1ccccc1)NC(=O)[C@@H](NC(=O)[C@H](CC(C)C)NC(=O)[C@H](CC(=O)O)NC(=O)[C@H](CC(C)C)NC(=O)[C@H](CO)NC(=O)[C@@H](NC(=O)[C@@H]1CCCN1C(=O)[C@@H]1CCCN1C(=O)[C@@H](N)CCC(=O)O)[C@@H](C)CC)[C@@H](C)O)C(C)C)[C@@H](C)CC)C(N)=O", "note": "[IV] (H-EPPISLDLT[dF]HLLREVLAMARAEQLAQQAHSNRKLMEII-NH2)", "values": [{"measurement": "lowering of blood pressure", "setting": "[1]", "value": "significant lowering of blood pressure"}, {"measurement": "biopotency", "setting": "[2]", "value": "biopotent"}]}
{"compound": "CCCC[C@H](NC(=O)[C@H](C)NC(=O)[C@H](CC(C)C)NC(=O)[C@@H](NC(=O)[C@H](CCC(=O)O)NC(=O)[C@H](CCCNC(=N)N)NC(=O)[C@H](CC(C)C)NC(=O)[C@H](CC(C)C)NC(=O)[C@H](Cc1c[nH]cn1)NC(=O)[C@H](N)Cc1ccccc1)C(C)C)C(=O)N[C@@H](C)C(=O)N[C@@H](CCCNC(=N)N)C(=O)N[C@@H](C)C(=O)N[C@@H](CCC(=O)O)C(=O)N[C@@H](CCC(N)=O)C(=O)N[C@@H](CC(C)C)C(=O)N[C@@H](C)C(=O)N[C@@H](CCC(N)=O)C(=O)N[C@@H](CCC(N)=O)C(=O)N[C@@H](C)C(=O)N[C@@H](Cc1c[nH]cn1)C(=O)N[C@@H](CO)C(=O)N[C@@H](CC(N)=O)C(=O)N[C@@H](CCCNC(=N)N)C(=O)N[C@@H](CCCNC(=N)N)C(=O)N[C@@H](CC(C)C)C(=O)N[C@@H](CCCC)C(=O)N[C@@H](C)C(=O)N[C@H](C(=O)N[C@H](C(N)=O)[C@@H](C)CC)[C@@H](C)CC", "note": "[IX] (H-[dF]HLLREVLA[Nle]ARAEQLAQQAHSNRRL[Nle]AII-NH2)", "values": [{"measurement": "inhibition of the secretion of ACTH and β-END-LI", "setting": "[3]", "value": "inhibits the secretion of ACTH and β-END-LI"}, {"measurement": "biopotency", "setting": "[2]", "value": "biopotent"}]}
{"compound": "CRF: physiologic corticotropin releasing factor, a hentetracontapeptide; species form not specified at the place (SEEPPISLDLTFHLLREVLEMARAEQLAQQAHSNRKLMEII-NH2; ends and bridges not checked; UniProt P06850 154-194, looked up)", "values": [{"measurement": "activity", "setting": "rats", "value": "increases activity"}, {"measurement": "learning performance", "setting": "rats", "value": "improves learning performance"}, {"measurement": "respiratory rate", "setting": "[4]", "value": "appears to increase respiratory rate"}]}
{"compound": "SEEPPISLDLT[dF]HLLREVLA[Nle]ARAEQLAQQAHSNRRL[Nle]AII-NH2 [VIA]", "values": [{"measurement": "stimulation of the secretion of ACTH and β-END-LI", "setting": "[5]", "value": "stimulates the secretion of ACTH and β-END-LI"}, {"measurement": "lowering of blood pressure", "setting": "[1]", "value": "significant lowering of blood pressure"}, {"measurement": "biopotency", "setting": "[2]", "value": "biopotent"}]}
{"compound": "SQEPPISLDLTFHLLREVLAMTKADQLAQQAHSNRKLLDIA-NH2 [Example I]", "values": [{"measurement": "potency to stimulate the secretion of ACTH and β-endorphin, times as potent as the native hormone", "setting": "[6]", "value": "2-4 times"}]}
{"compound": "SQEPPISLDLTFHLLREVLEMTKADQLAQQAHSNRKLLAIA-NH2 [II]", "values": [{"measurement": "increase in biopotency in vitro over the native hormone", "setting": "[6]", "value": "~85", "unit": "%"}]}
{"compound": "Ser-Gln-Glu-Pro-Pro-Ile-Ser-Leu-Asp-Leu-Thr-Phe-His-Leu-Leu-Arg-Glu-Val-Leu-Glu-Met-Thr-Lys-Ala-Asp-Gln-Leu-Ala-Gln-Gln-Ala-His-Ser-Asn-Arg-Lys-Leu-Leu-Asp-Ile-Ala (SQEPPISLDLTFHLLREVLEMTKADQLAQQAHSNRKLLDIA) [oCRF]", "values": [{"measurement": "stimulation of ACTH and β-endorphin-like activities (β-END-LI) in vitro", "setting": "[7]", "value": "stimulate ACTH and β-endorphin-like activities"}, {"measurement": "stimulation of ACTH and β-endorphin-like activities (β-END-LI) in vivo", "setting": "[8]", "value": "stimulates the secretion of ACTH and β-endorphin; also recorded: stimulate ACTH and β-endorphin-like activities"}, {"measurement": "lowering of blood pressure", "setting": "[9]", "value": "lowers blood pressure; also recorded: substantially lower blood pressure"}]}
{"compound": "Ser-Gln-Glu-Pro-Pro-Ile-Ser-Leu-Asp-Leu-Thr-phe-His-Leu-Leu-Arg-Glu-Met-Leu-Glu-Met-Ala-Lys-Ala-Glu-Gln-Glu-Ala-Glu-Gln-Ala-Ala-Leu-Asn-Arg-Leu-Leu-Leu-Glu-Glu-Ala (SQEPPISLDLTFHLLREMLEMAKAEQEAEQAALNRLLLEEA) [AHC]", "values": [{"measurement": "stimulation of ACTH and β-endorphin-like activities (β-END-LI) in vitro", "setting": "[7]", "value": "stimulate ACTH and β-endorphin-like activities"}, {"measurement": "stimulation of ACTH and β-endorphin-like activities (β-END-LI) in vivo", "setting": "[8]", "value": "stimulate ACTH and β-endorphin-like activities"}, {"measurement": "lowering of blood pressure", "setting": "[9]", "value": "substantially lower blood pressure"}]}
{"compound": "Ser-Glu-Glu-Pro-Pro-Ile-Ser-Leu-Asp-Leu-Thr-phe-His-Leu-Leu-Arg-Glu-Val-Leu-Glu-Met-Ala-Arg-Ala-Glu-Gln-Leu-Ala-Gln-Gln-Ala-His-Ser-Asn-Arg-Lys-Leu-Met-Glu-Ile-Ile (SEEPPISLDLTFHLLREVLEMARAEQLAQQAHSNRKLMEII) [rCRF]", "values": [{"measurement": "stimulation of ACTH and β-endorphin-like activities (β-END-LI) in vitro", "setting": "[7]", "value": "stimulate ACTH and β-endorphin-like activities"}, {"measurement": "stimulation of ACTH and β-endorphin-like activities (β-END-LI) in vivo", "setting": "[8]", "value": "stimulate ACTH and β-endorphin-like activities"}, {"measurement": "lowering of blood pressure", "setting": "[9]", "value": "substantially lower blood pressure"}]}
